# Laboratory results as given in PubChem BioAssay AID2060891 (Molecular Pharmacology Branch, DTP, NCI, 2025).
# Where “and” joins values, the source holds several entries; their conditions need not be identical. Equal entries are not always repeated.
# Tested on: K98450-129-R-PDC complex spheroid growth, percent test/control
# Experiment: Anticancer human tumor K98450-129-R-PDC patient-derived colon adenocarcinoma cell line growth inhibition [RAS]
# Settings: for viability, T/C: stronger effect = lower value
# Text: RAS pathway inhibitors in Combinations in Complex Spheroids
# A high-throughput screen of multi-cell type tumor spheroids was designed to identify active combinations of RAS pathway inhibitors and targeted small molecules. Complex spheroids include a stromal component modeled by human endothelial cells (HUVEC) and fibroblasts modeled by human mesenchymal stem cells (MSCs). The concentration ranges selected for each drug and investigational agent were based upon clinically achievable concentrations if the clinical Cmax of the agent was known.
# Compounds. The drugs and investigational agents: abemaciclib (NSC768073), cobimetinib (NSC768068), divarasib (GDC6063, NSC841802), docetaxel (NSC628503), GDC-1971 (RLY-1971, NSC841576), gemcitabine (NSC613327), inavolisib (NSC800729), ipatasertib (NSC767898), KB-0742 (NSC834161), MRTX-1133 (NSC836407), osimertinib (NSC779217), RMC-4630 (NSC839698), RMC-6236 (NSC851965), RMC-6291 (NSC852671), Ro-3306 (NSC812927), sapanisertib (NSC764658), SN-38 (NSC673596), staurosporine (NSC755774), SY5609 (NSC837396), and tovorafenib (DAY101, NSC766906), were obtained from the National Cancer Institute (NCI) Developmental Therapeutics Program Chemical Repository. The FDA-approved anticancer drug set is available from the NCI Developmental Therapeutics Program. […] The stock solutions were prepared in dimethyl sulfoxide (DMSO, Sigma-Aldrich, St. Louis, MO, cat. D2650) at 800-fold the tested concentration and stored at -70 degrees C prior to their use. All drugs and investigational agents were tested over a range starting from a high concentration at or near the clinical Cmax and decreasing in half-log increments. If the clinical Cmax for an agent had not been determined, the highest concentration tested was 10 microM.
# Cell Culture. All cells were maintained in an incubator at 37 degrees C and 5% CO2 with 95% humidity. The PDC lines were cultured according to standard operating procedures established by the NCI PDMR. All PDCs were thawed and cultured in Matrigel-coated flasks prepared with a working solution of 1X Ham's F-12 nutrient mix, without supplementation (Invitrogen, Waltham, MA, cat. 11765054), 100 U/mL penicillin-streptomycin (Invitrogen, cat. 15140122), and 2.5% Matrigel (Corning Inc., Corning, NY, cat. 354248) for the first three passages. The 362531-283-R-J2-PDC and 782815-120-R-J1-PDC lines were cultured in 6C/Colon 1B media, which includes advanced DMEM/F-12 (Thermo Fisher Scientific, cat. 12634028), 10 mM HEPES (Thermo Fisher Scientific, cat. 15630080), 1X GlutaMAX supplement (Thermo Fisher Scientific, cat. 35050061), 0.1 mg/mL primocin (InvivoGen, San Diego, CA, cat. ant-pm-2), 10% defined fetal bovine serum, heat inactivated (HyClone Laboratories Inc., Logan, UT, cat. SH30070.03HI), 50% L-WRN conditioned media (ATCC, cat. CRL-3276), 1.25 mM N-Acetyl-L-cysteine (Sigma-Aldrich, cat. A9165), 10 mM nicotinamide (Sigma-Aldrich, cat. N0636), 1X B-27 supplement (Thermo Fisher Scientific, cat. 17504044), 1X N-2 supplement (Thermo Fisher Scientific, cat. 17502048), 50 ng/mL human EGF (Thermo Fisher Scientific, cat. PHG0311), and 10 microM Y-27632 dihydrochloride (Tocris Bioscience, cat. 1254). The K12877-001-R-J1-PDC line was cultured in 6I media, which includes all 6C/Colon 1B media plus 10 ng/mL human FGF-10 (PeproTech, cat. 100-26), 1 ng/mL human FGF-2 (PeproTech, cat. 100-18B), 1 µM prostaglandin E2 (Tocris Bioscience, cat. 2296), […] hydrocortisone (Sigma-Aldrich, cat. H4001), and […] bovine insulin (Sigma-Aldrich, cat. I6634). The K86415-001-R-J1-PDC line was cultured in 6D media, which includes all 6C/Colon 1B media components minus the L-WRN conditioned media. The 485176-168-R4-J1-PDC was cultured in PANC media, which includes all 6C/Colon 1B media plus 100 ng/mL human FGF-10 (PeproTech, cat. 100-26), 500 nM SB-431542 (Selleckchem, cat. S1067), and 10 nM gastrin (Tocris Bioscience, cat. 3006). […]
# 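Further: spheroids exposed to agents for seven days before the viability readout.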
# 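Wherever viability, T/C is given: luminescence used as a proxy for viable cell amount.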
structure (smiles),measurement,setting,value
CC(=O)OC12COC1CC(O)C1(C)C(=O)C(O)C3=C(C)C(OC(=O)C(O)C(NC(=O)OC(C)(C)C)c4ccccc4)CC(O)(C(OC(=O)c4ccccc4)C21)C3(C)C (stereo unspecified),"viability, T/C",compound 0.0316 µM,104% [middle of 4 runs]
same,"viability, T/C",compound 0.316 µM,65.8% [middle of 4 runs]
same,"viability, T/C",compound 1 µM,50.8% [middle of 4 runs]
same,"viability, T/C",compound 3.16 µM,42.5% [middle of 4 runs]
same,"viability, T/C",compound 10 µM,43.9% [middle of 4 runs]
CC(C)NCC(C(=O)N1CCN(c2ncnc3c2C(C)CC3O)CC1)c1ccc(Cl)cc1 (stereo unspecified),"viability, T/C",compound 0.0316 µM,103% [middle of 4 runs]
same,"viability, T/C",compound 0.1 µM,97.1% [middle of 4 runs]
same,"viability, T/C",compound 0.316 µM,104% (2×) and 111% and 88.1%
same,"viability, T/C",compound 1 µM,102% [middle of 4 runs]
same,"viability, T/C",compound 3.16 µM,104% [middle of 4 runs]
same,"viability, T/C",compound 10 µM,101% [middle of 4 runs]
same,IC50,curve of compound,> 10000 nM
CC1(O)CCCC1n1c(=O)c(C(F)F)cc2cnc(NC3CCN(S(C)(=O)=O)CC3)nc21 (stereo unspecified),"viability, T/C",compound 0.0316 µM,102% (2×) and 99.8% and 90.2%
same,"viability, T/C",compound 0.1 µM,95.5% [middle of 4 runs]
same,"viability, T/C",compound 0.316 µM,91.1% [middle of 4 runs]
same,"viability, T/C",compound 1 µM,79% [middle of 4 runs]
same,"viability, T/C",compound 3.16 µM,79% [middle of 4 runs]
same,"viability, T/C",compound 10 µM,73.3% [middle of 4 runs]
same,IC50,curve of compound,> 10000 nM
CCC(CC)c1cc(NC2CCC(N)C2)n2nccc2n1 (stereo unspecified),"viability, T/C",compound 0.0316 µM,99.1% [middle of 4 runs]
same,"viability, T/C",compound 0.316 µM,99.2% [middle of 4 runs]
same,"viability, T/C",compound 1 µM,102% (2×) and 98% and 94%
same,"viability, T/C",compound 3.16 µM,90.9% [middle of 4 runs]
same,"viability, T/C",compound 10 µM,17.7% [middle of 4 runs]
same,IC50,curve of compound,5.89 µM [middle of 4 runs]
C[C@@H](NC(=O)c1ncnc(N)c1Cl)c1ncc(C(=O)Nc2cc(C(F)(F)F)c(Cl)cn2)s1,"viability, T/C",compound 0.0316 µM,110% [middle of 4 runs]
same,"viability, T/C",compound 0.316 µM,122% [middle of 4 runs]
same,"viability, T/C",compound 1 µM,126% [middle of 4 runs]
same,"viability, T/C",compound 10 µM,106% [middle of 4 runs]
same,IC50,curve of compound,> 10000 nM
Cc1nc(N2CCC3(CC2)COC(C)C3N)c(CO)nc1Sc1ccnc(N)c1Cl (stereo unspecified),"viability, T/C",compound 0.0316 µM,96.9% [middle of 4 runs]
same,"viability, T/C",compound 0.1 µM,92.8% [middle of 4 runs]
same,"viability, T/C",compound 0.316 µM,86.5% [middle of 4 runs]
same,"viability, T/C",compound 1 µM,77.2% [middle of 4 runs]
same,"viability, T/C",compound 3.16 µM,53.1% [middle of 4 runs]
same,"viability, T/C",compound 10 µM,28.8% [middle of 4 runs]
same,IC50,curve of compound,3.66 µM [middle of 4 runs]
NC1c2ccccc2OC12CCN(c1cnc3c(N4CCCc5ncccc54)n[nH]c3n1)CC2 (stereo unspecified),"viability, T/C",compound 0.0316 µM,90.2% [middle of 4 runs]
same,"viability, T/C",compound 0.1 µM,67.2% [middle of 4 runs]
same,"viability, T/C",compound 0.316 µM,39.9% [middle of 4 runs]
same,"viability, T/C",compound 1 µM,25.4% [middle of 4 runs]
same,"viability, T/C",compound 3.16 µM,19.4% [middle of 4 runs]
same,"viability, T/C",compound 10 µM,25% [middle of 4 runs]
same,IC50,curve of compound,193 nM [middle of 4 runs]
C=CC(=O)Nc1cc(Nc2nccc(-c3cn(C)c4ccccc34)n2)c(OC)cc1N(C)CCN(C)C + C#Cc1c(F)ccc2cc(O)cc(-c3ncc4c(N5CC6CCC(C5)N6)nc(OCC56CCCN5CC(F)C6)nc4c3F)c12,IC50,"curve of first compound, second compound 0.0316 µM",622 nM
same,IC50,"curve of first compound, second compound 0.1 µM",637 nM
same,IC50,"curve of first compound, second compound 0.316 µM",584 nM
same,IC50,"curve of first compound, second compound 1 µM",468 nM
same,IC50,"curve of first compound, second compound 3.16 µM",330 nM
same,IC50,"curve of first compound, second compound 10 µM",193 nM
same,"viability, T/C","second compound 0.0316 µM, first compound 0.00316 µM",107%
same,"viability, T/C","second compound 0.0316 µM, first compound 0.01 µM",112%
same,"viability, T/C","second compound 0.0316 µM, first compound 0.0316 µM",106%
same,"viability, T/C","second compound 0.0316 µM, first compound 0.1 µM",100%
same,"viability, T/C","second compound 0.0316 µM, first compound 0.316 µM",69.4%
same,"viability, T/C","second compound 0.0316 µM, first compound 1 µM",36.4%
same,"viability, T/C","second compound 0.1 µM, first compound 0.00316 µM",107%
same,"viability, T/C","second compound 0.1 µM, first compound 0.01 µM",100%
same,"viability, T/C","second compound 0.1 µM, first compound 0.0316 µM",103%
same,"viability, T/C","second compound 0.1 µM, first compound 0.1 µM",101%
same,"viability, T/C","second compound 0.1 µM, first compound 0.316 µM",79.6%
same,"viability, T/C","second compound 0.1 µM, first compound 1 µM",30.9%
same,"viability, T/C","second compound 0.316 µM, first compound 0.00316 µM",112%
same,"viability, T/C","second compound 0.316 µM, first compound 0.01 µM",106%
same,"viability, T/C","second compound 0.316 µM, first compound 0.0316 µM",97.9%
same,"viability, T/C","second compound 0.316 µM, first compound 0.1 µM",95.8%
same,"viability, T/C","second compound 0.316 µM, first compound 0.316 µM",78.6%
same,"viability, T/C","second compound 0.316 µM, first compound 1 µM",26%
same,"viability, T/C","second compound 1 µM, first compound 0.00316 µM",105%
same,"viability, T/C","second compound 1 µM, first compound 0.01 µM",105%
same,"viability, T/C","second compound 1 µM, first compound 0.0316 µM",92.6%
same,"viability, T/C","second compound 1 µM, first compound 0.1 µM",95%
same,"viability, T/C","second compound 1 µM, first compound 0.316 µM",66.3%
same,"viability, T/C","second compound 1 µM, first compound 1 µM",16.6%
same,"viability, T/C","second compound 3.16 µM, first compound 0.00316 µM",93.7%
same,"viability, T/C","second compound 3.16 µM, first compound 0.01 µM",94.3%
same,"viability, T/C","second compound 3.16 µM, first compound 0.0316 µM",94.6%
same,"viability, T/C","second compound 3.16 µM, first compound 0.1 µM",89.7%
same,"viability, T/C","second compound 3.16 µM, first compound 0.316 µM",51.5%
same,"viability, T/C","second compound 3.16 µM, first compound 1 µM",11.5%
same,"viability, T/C","second compound 10 µM, first compound 0.00316 µM",91.9%
same,"viability, T/C","second compound 10 µM, first compound 0.01 µM",85.3%
same,"viability, T/C","second compound 10 µM, first compound 0.0316 µM",90.1%
same,"viability, T/C","second compound 10 µM, first compound 0.1 µM",79.3%
same,"viability, T/C","second compound 10 µM, first compound 0.316 µM",28%
same,"viability, T/C","second compound 10 µM, first compound 1 µM",10.6%
